Data taken from patent US20210009564A1, “CALPAIN MODULATORS AND THERAPEUTIC USES THEREOF” (BLADE THERAPERTICS, INC., priority 2018, published 2021).

Columns and labels:
Human Calpain 9/NS1 = biological target: T1, Human Calpain 9/NS1 (Homo sapiens, UniProt O14815); assay: Calpain inhibition, continuous fluorescence (FRET substrate) assay, calpain 9; type: biochemical; conditions: SensoLyte 520 FRET substrate, 25C
T1 sequence (O14815 1-690): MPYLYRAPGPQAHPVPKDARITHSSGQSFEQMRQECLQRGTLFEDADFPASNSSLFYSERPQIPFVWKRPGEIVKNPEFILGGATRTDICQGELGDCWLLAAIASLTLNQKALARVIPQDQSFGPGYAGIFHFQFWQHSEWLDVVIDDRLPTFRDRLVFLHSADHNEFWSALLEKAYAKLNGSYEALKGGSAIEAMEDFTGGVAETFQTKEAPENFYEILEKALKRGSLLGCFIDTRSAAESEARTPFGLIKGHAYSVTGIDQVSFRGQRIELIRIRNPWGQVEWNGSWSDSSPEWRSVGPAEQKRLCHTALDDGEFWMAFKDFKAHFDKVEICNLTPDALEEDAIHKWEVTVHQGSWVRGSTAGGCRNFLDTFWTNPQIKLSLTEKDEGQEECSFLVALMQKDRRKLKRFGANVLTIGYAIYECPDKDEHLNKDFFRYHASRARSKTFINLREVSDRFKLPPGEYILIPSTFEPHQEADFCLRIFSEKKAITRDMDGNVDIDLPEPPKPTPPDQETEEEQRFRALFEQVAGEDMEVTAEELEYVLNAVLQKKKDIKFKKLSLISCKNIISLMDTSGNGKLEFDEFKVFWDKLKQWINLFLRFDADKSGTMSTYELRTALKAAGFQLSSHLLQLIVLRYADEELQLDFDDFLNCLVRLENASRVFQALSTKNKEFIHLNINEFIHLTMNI
T1 sequence (P04632 1-268 partner): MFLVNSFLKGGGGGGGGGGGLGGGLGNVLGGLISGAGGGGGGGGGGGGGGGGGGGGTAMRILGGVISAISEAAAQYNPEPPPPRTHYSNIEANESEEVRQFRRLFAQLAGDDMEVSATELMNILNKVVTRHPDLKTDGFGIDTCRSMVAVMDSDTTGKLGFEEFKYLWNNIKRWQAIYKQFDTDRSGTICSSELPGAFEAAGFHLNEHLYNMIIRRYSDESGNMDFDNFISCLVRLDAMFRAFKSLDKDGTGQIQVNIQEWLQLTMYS
Description: (§1) Calpain 1, 2, and 9 activity and inhibition thereof was assessed by means of a continuous fluorescence assay. The SensoLyte 520 Calpain substrate (Anaspec Inc) was optimized for detecting calpain activity. This substrate contains an internally quenched 5-FAM/QXLTM 520 FRET pair. Calpains 1, 2, and 9 cleave the FRET substrate into two separate fragments resulting in an increase of 5-FAM fluorescence that is proportional to calpain activity Assays were typically setup in black 384-well plates using automated liquid handling as follows. Calpain assay base buffer typically contains 50 mM Tris, pH 7.5, 100 mM NaCl and 1 mM DTT. Inhibitors were serially diluted in DMSO and used to setup 2× mixtures with calpains in the aforementioned buffer. After incubation at ambient temperature (25C), the reaction was initiated by adding a 2× mix of the fluorescent peptide substrate and CaCl2) (required for in-situ calpain activation) in the same buffer. Reaction progress curve data were typically collected for 10 min using excitation/emission wavelengths of 490 nm/520 nm on SpectraMax i3× or the FLIPR-Tetra plate readers (Molecular Devices Inc). Reaction rates were calculated from progress curve slopes typically over 1-5 min. Dose response curves (rate vs. log inhibitor concentration) were typically fit to a 4-parameter logistic function to extract IC50 values.

Human Calpain 2/NS1 = biological target: T2, Human Calpain 2/NS1 (Homo sapiens, UniProt P17655); assay: Calpain inhibition, continuous fluorescence (FRET substrate) assay, calpain 2; type: biochemical; conditions: SensoLyte 520 FRET substrate, 25C
T2 sequence (P17655 1-700): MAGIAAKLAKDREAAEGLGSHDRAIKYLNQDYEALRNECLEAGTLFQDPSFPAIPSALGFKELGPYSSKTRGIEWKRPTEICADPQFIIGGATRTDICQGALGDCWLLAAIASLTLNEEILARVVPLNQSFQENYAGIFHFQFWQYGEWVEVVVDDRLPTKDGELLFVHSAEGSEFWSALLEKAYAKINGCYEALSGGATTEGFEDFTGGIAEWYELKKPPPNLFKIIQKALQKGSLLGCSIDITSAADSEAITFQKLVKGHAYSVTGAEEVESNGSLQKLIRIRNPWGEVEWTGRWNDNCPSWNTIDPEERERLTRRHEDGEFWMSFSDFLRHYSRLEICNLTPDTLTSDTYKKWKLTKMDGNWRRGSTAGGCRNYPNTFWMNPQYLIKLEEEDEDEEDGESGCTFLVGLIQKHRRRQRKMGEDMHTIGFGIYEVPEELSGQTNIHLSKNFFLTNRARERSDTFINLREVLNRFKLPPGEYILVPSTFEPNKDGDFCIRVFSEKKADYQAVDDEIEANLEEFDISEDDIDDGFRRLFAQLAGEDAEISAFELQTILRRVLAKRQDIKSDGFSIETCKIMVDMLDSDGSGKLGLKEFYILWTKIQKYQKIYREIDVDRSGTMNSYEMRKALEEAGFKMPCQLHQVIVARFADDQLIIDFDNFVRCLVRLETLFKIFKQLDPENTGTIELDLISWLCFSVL
T2 sequence (P04632 1-268 partner): T1 sequence (P04632 1-268 partner)
Description: as §1

[1] = test system: Calpain activity in SH-SY5Y cells; assay: SH-SY5Y spectrin breakdown product (SBDP-150) western blot assay; type: cell-based; conditions: Homo sapiens; SH-SY5Y cells, 25 uM A23187, SBDP-150 western blot; read-out: SH-SY5Y Spectrin IC50
Human Calpain 1/NS1 = biological target: T3, Human Calpain 1/NS1 (Homo sapiens, UniProt P07384); assay: Calpain inhibition, continuous fluorescence (FRET substrate) assay, calpain 1; type: biochemical; conditions: SensoLyte 520 FRET substrate, 25C
T3 sequence (P07384 1-714): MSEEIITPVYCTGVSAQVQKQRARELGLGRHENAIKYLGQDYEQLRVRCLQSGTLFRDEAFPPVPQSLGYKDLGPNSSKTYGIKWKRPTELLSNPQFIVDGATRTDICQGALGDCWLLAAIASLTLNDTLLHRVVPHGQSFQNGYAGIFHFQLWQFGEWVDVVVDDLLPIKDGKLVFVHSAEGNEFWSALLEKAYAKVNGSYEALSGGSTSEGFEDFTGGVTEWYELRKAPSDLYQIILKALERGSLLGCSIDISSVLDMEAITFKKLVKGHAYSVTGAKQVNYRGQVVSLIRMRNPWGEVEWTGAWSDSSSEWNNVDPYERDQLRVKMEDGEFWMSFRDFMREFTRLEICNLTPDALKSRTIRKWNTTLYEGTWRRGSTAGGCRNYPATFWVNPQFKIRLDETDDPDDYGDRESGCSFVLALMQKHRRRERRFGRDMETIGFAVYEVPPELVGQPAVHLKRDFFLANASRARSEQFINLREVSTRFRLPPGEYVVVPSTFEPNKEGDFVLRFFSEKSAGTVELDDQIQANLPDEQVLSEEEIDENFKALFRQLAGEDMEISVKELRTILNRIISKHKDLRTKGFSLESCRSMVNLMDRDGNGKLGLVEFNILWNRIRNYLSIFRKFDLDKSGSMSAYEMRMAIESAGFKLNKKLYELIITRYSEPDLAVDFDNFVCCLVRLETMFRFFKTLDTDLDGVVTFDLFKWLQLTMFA
T3 sequence (P04632 1-268 partner): T1 sequence (P04632 1-268 partner)
Description: as §1

[2] = test system: Calpain activity in SH-SY5Y cells; assay: SH-SY5Y Suc-LLVY-AMC fluorescence assay; type: cell-based; conditions: Homo sapiens; SH-SY5Y cells, 100 uM Suc-LLVY-AMC; read-out: SH-SY5Y + AMC IC50

| Structure (SMILES) | IC50 (Human Calpain 9/NS1) [µM] | IC50 (Human Calpain 2/NS1) [µM] | IC50 [1] [µM] | IC50 (Human Calpain 1/NS1) [µM] | IC50 [2] [µM] |
| --- | --- | --- | --- | --- | --- |
| NC(=O)C(=O)C(Cc1ccccc1)NC(=O)c1cn(C(F)F)nc1-c1cnc2ccccc2n1 (stereo not shown) [Compound 25, N-(4-AMINO-3,4-DIOXO-1-PHENYLBUTAN-2-YL)-1-(DIFLUOROMETHYL)-3-(QUINOXALIN-2-YL)-1H-PYRAZOLE-4-CARBOXAMIDE] | < 3 | < 3 | 10 to 25 | < 3 |  |
| Cn1cc(C(=O)NC(Cc2ccccc2)C(=O)C(N)=O)c(-c2cccc3cnn(C)c23)n1 (stereo not shown) [Compound 33, N-(4-AMINO-3,4-DIOXO-1-PHENYLBUTAN-2-YL)-1-METHYL-3-(1-METHYL-1H-INDAZOL-7-YL)-1H-PYRAZOLE-4-CARBOXAMIDE] | < 3 | < 3 | > 25 | 3 to 10 |  |
| Cc1nc(-c2ccccc2F)c(C(=O)NC(Cc2ccc(F)cc2)C(=O)C(N)=O)o1 (stereo not shown) [Compound 73, N-(4-AMINO-1-(4-FLUOROPHENYL)-3,4-DIOXOBUTAN-2-YL)-4-(2-FLUOROPHENYL)-2-METHYLOXAZOLE-5-CARBOXAMIDE] | < 3 | < 3 | < 10 | < 3 |  |
| COC(=O)C(=O)C(Cc1ccccc1)NC(=O)c1cn(C)nc1-c1cccc(F)c1 (stereo not shown) [Compound 74, METHYL-3-(3-(3-FLUOROPHENYL)-1-METHYL-1H-PYRAZOLE-4-CARBOXAMIDO)-2-OXO-4-PHENYLBUTANOATE] | < 3 | < 3 | > 25 | < 3 |  |
| O=C(O)C(=O)C(Cc1ccccc1)NC(=O)c1nsnc1-c1cccc2oc(=O)[nH]c12 (stereo not shown) [Compound 106, 2-OXO-3-4-(2-OXO-2,3-DIHYDROBENZO[D]OXAZOL-4-YL)-1,2,5-THIADIAZOLE-3-CARBOXAMIDO)-4-PHENYLBUTANOIC ACID] | < 3 | < 3 |  | < 3 | 10 to 25 |
| O=C(O)C(=O)C(Cc1ccccc1)NC(=O)c1nsnc1-c1cccc2c1OC(F)(F)O2 (stereo not shown) [Compound 107, 3-(4-(2,2-DIFLUOROBENZO[D][1,3]DIOXOL-4-YL)-1,2,5-THIADIAZOLE-3-CARBOXAMIDO)-2-OXO-4-PHENYLBUTANOIC ACID] | < 3 | < 3 |  | < 3 | 10 to 25 |
| Cc1nc(-c2c(F)cccc2F)c(C(=O)NC(Cc2ccccc2)C(=O)C(=O)O)o1 (stereo not shown) [Compound 108, 3-(4-(2,6-DIFLUOROPHENYL)-2-METHYLOXAZOLE-5-CARBOXAMIDO)-2-OXO-4-PHENYLBUTANOIC ACID] | < 3 | < 3 |  | < 3 | < 10 |
| CN(C)NC(=O)C(=O)C(Cc1ccccc1)NC(=O)c1nsnc1-c1ccccc1 (stereo not shown) [Compound 109, N-(4-(2,2-DIMETHYLHYDRAZINEYL)-3,4-DIOXO-1-PHENYLBUTAN-2-YL)-4-PHENYL-1,2,5-THIADIAZOLE-3-CARBOXAMIDE] | < 3 | < 3 |  | < 3 | 10 to 25 |
| O=C(NC(Cc1ccccc1)C(=O)CO)c1nsnc1-c1ccccc1 (stereo not shown) [Compound 111, N-(4-HYDROXY-3-OXO-1-PHENYLBUTAN-2-YL)-4-PHENYL-1,2,5-THIADIAZOLE-3-CARBOXAMIDE] | > 10 | 3 to 10 |  | 3 to 10 | > 25 |
| Cn1cc(C(=O)NC(Cc2ccccc2)C(=O)C(N)=O)c(-c2cccc3c2OC(C)(C)O3)n1 (stereo not shown) [Compound 112, N-(4-AMINO-3,4-DIOXO-1-PHENYLBUTAN-2-YL)-3-(2,2-DIMETHYLBENZO[D][1,3]DIOXOL-4-YL)-1-METHYL-1H-PYRAZOLE-4-CARBOXAMIDE] | < 3 | < 3 |  | < 3 | > 25 |
| CONC(=O)C(=O)C(Cc1ccccc1)NC(=O)c1cccnc1-n1ccc(-c2ccccc2)n1 (stereo not shown) [Compound 113, N-(4-(METHOXYAMINO)-3,4-DIOXO-1-PHENYLBUTAN-2-YL)-2-(3-PHENYL-1H-PYRAZOL-1-YL)NICOTINAMIDE] | < 3 | < 3 |  | < 3 | 10 to 25 |
| CC(C)n1c(=O)oc2c(-c3nn(C)cc3C(=O)NC(Cc3ccccc3)C(=O)C(N)=O)cccc21 (stereo not shown) [Compound 114, N-(4-AMINO-3,4-DIOXO-1-PHENYLBUTAN-2-YL)-3-(3-ISOPROPYL-2-OXO-2,3-DIHYDROBENZO[D]OXAZOL-7-YL)-1-METHYL-1H-PYRAZOLE-4-CARBOXAMIDE] | < 3 | < 3 |  | < 3 | > 25 |
| NC(=O)C(=O)C(Cc1ccccc1)NC(=O)c1nsnc1-c1cccc2c1CC(=O)N2 (stereo not shown) [Compound 115, N-(4-AMINO-3,4-DIOXO-1-PHENYLBUTAN-2-YL)-4-(2-OXOINDOLIN-4-YL)-1,2,5-THIADIAZOLE-3-CARBOXAMIDE] | < 3 | < 3 |  | < 3 | < 10 |
